According to patent US9937183B2, “Antimicrobial compounds and methods of making and using the same” (priority 2013, dated 2018):
Values after ≈ are worked out from the molar mass of the structure shown. Where two headings read alike, the source gives them in different places.

What was measured:
Assay type in all cases: cell-based
E. coli 1705878 = assay: MIC, microtiter-based liquid assay (CLSI); conditions: Escherichia coli, MDR strain
A. baumannii 1705943 = assay: MIC, microtiter-based liquid assay (CLSI); conditions: Acinetobacter baumannii
E. coli CAG12184 TolC = assay: MIC, microtiter-based liquid assay (CLSI); conditions: Escherichia coli, CAG12184TOLC
B. anthracis = assay: microbe, parasite or virus in culture; conditions: Bacillus anthracis; for MIC50: read-out: B. anthracis MIC50; for MIC90: read-out: B. anthracis MIC90; for MIC: read-out: B. anthracis MIC Range
E. coli MG1655 parent = assay: MIC, microtiter-based liquid assay (CLSI); conditions: Escherichia coli
K. pneumoniae 1705966 = assay: MIC, microtiter-based liquid assay (CLSI); conditions: Klebsiella pneumoniae
E. coli ATCC25922 = assay: MIC, microtiter-based liquid assay (CLSI); conditions: Escherichia coli
A. baumannii 1705936 = assay: MIC, microtiter-based liquid assay (CLSI); conditions: Acinetobacter baumannii, MDR strain
B. mallei = assay: microbe, parasite or virus in culture; conditions: Burkholderia mallei; for MIC50: read-out: B. mallei MIC50; for MIC90: read-out: B. mallei MIC90; for MIC: read-out: B. mallei MIC Range
[1] = tested on: S. pneumoniae 02J1175 Mef(A); assay: MIC, microtiter-based liquid assay (CLSI); conditions: Streptococcus pneumoniae
P. aeruginosa 1705904 = assay: MIC, microtiter-based liquid assay (CLSI); conditions: Pseudomonas aeruginosa, MDR strain
P. aeruginosa ATCC27853 = assay: MIC, microtiter-based liquid assay (CLSI); conditions: Pseudomonas aeruginosa
S. aureus 11540 MRSA = assay: MIC, microtiter-based liquid assay (CLSI); conditions: Staphylococcus aureus
F. tularensis = assay: microbe, parasite or virus in culture; conditions: Francisella tularensis; for MIC50: read-out: F. tularensis MIC50; for MIC90: read-out: F. tularensis MIC90; for MIC: read-out: F. tularensis MIC Range
[2] = tested on: E. faecium A6349 VanA + LNZ-R; assay: MIC, microtiter-based liquid assay (CLSI); conditions: Enterococcus faecium
B. pseudomallei = assay: microbe, parasite or virus in culture; conditions: Burkholderia pseudomallei; for MIC50: read-out: B. pseudomallei MIC50; for MIC90: read-out: B. pseudomallei MIC90; for MIC: read-out: B. pseudomallei MIC Range
P. aeruginosa 1705886 = assay: MIC, microtiter-based liquid assay (CLSI); conditions: Pseudomonas aeruginosa
Y. pestis = assay: microbe, parasite or virus in culture; conditions: Yersinia pestis; for MIC50: read-out: Y. pestis MIC50; for MIC90: read-out: Y. pestis MIC90; for MIC: read-out: Y. pestis MIC Range
K. pneumoniae 1705949 = assay: MIC, microtiter-based liquid assay (CLSI); conditions: Klebsiella pneumoniae, MDR strain
[3] = ATCC25922, read-out: MIC E. coli ATCC25922 + 50% HS
[4] = ATCC25922, read-out: MIC E. coli ATCC25922

Structure (SMILES) | MIC (E. coli 1705878) | MIC (A. baumannii 1705943) | MIC (E. coli CAG12184 TolC) | MIC50 (B. anthracis) | MIC90 (B. anthracis) | MIC (B. anthracis) | MIC (E. coli MG1655 parent) | MIC (K. pneumoniae 1705966) | MIC (E. coli ATCC25922; [3]) | MIC (E. coli ATCC25922; [4]) | MIC (A. baumannii 1705936) | MIC50 (B. mallei) | MIC90 (B. mallei) | MIC (B. mallei) | MIC [1] | MIC (P. aeruginosa 1705904) | MIC (P. aeruginosa ATCC27853) | MIC (S. aureus 11540 MRSA) | MIC50 (F. tularensis) | MIC90 (F. tularensis) | also measured
C=CCC[C@H](NCCCNC(=N)N)c1ccc(-n2cc3cc(-c4cc(CCC[C@H](C)N)cc(Cl)c4F)[nH]c3nc2=O)cc1 [Compound 14] | 1 µg/mL (≈ 1.65 µM) | 0.5 µg/mL (≈ 0.823 µM) | 0.5 µg/mL (≈ 0.823 µM) | 0.25 µg/mL (≈ 0.412 µM) | 0.25 µg/mL (≈ 0.412 µM) | 0.03 to 0.5 µg/mL (≈ 0.0494 to 0.823 µM) | 1 µg/mL (≈ 1.65 µM) | 0.5 µg/mL (≈ 0.823 µM) | 2 µg/mL | 0.5 µg/mL (≈ 0.823 µM) | 0.5 µg/mL (≈ 0.823 µM) | ≤ 0.03 µg/mL | 0.25 µg/mL (≈ 0.412 µM) | 0.03 to 0.5 µg/mL (≈ 0.0494 to 0.823 µM) | 0.5 µg/mL (≈ 0.823 µM) | 4 µg/mL (≈ 6.59 µM) | 4 µg/mL (≈ 6.59 µM) | 0.5 µg/mL (≈ 0.823 µM) | 0.06 µg/mL (≈ 0.0988 µM) | 0.25 µg/mL (≈ 0.412 µM) | MIC (F. tularensis): 0.03 to 2 µg/mL (≈ 0.0494 to 3.29 µM); MIC [2]: 1 µg/mL; MIC50 (B. pseudomallei): 2 µg/mL (≈ 3.29 µM); MIC90 (B. pseudomallei): 4 µg/mL (≈ 6.59 µM); MIC (B. pseudomallei): 0.25 to 8 µg/mL (≈ 0.412 to 13.2 µM); MIC (P. aeruginosa 1705886): 2 µg/mL (≈ 3.29 µM); MIC50 (Y. pestis): 0.12 µg/mL (≈ 0.198 µM); MIC90 (Y. pestis): 0.5 µg/mL (≈ 0.823 µM); MIC (Y. pestis): 0.03 to 0.5 µg/mL (≈ 0.0494 to 0.823 µM); MIC (K. pneumoniae 1705949): 1 µg/mL (≈ 1.65 µM)
C[C@H](N)CCCc1cc(-c2cc3cn(-c4ccc(CNCCCNC(=N)N)cc4)c(=O)nc3[nH]2)c(F)c(Cl)c1F [Compound 13] | 0.25 µg/mL (≈ 0.438 µM) | 0.25 µg/mL (≈ 0.438 µM) | 0.25 µg/mL (≈ 0.438 µM) | ≤ 0.03 µg/mL | 0.12 µg/mL (≈ 0.21 µM) | 0.03 to 0.12 µg/mL (≈ 0.0525 to 0.21 µM) | 0.25 µg/mL (≈ 0.438 µM) | 0.25 µg/mL (≈ 0.438 µM) | 0.25 µg/mL | 0.25 µg/mL (≈ 0.438 µM) | 4 µg/mL (≈ 7 µM) | ≤ 0.03 µg/mL | 0.06 µg/mL (≈ 0.105 µM) | 0.03 to 0.25 µg/mL (≈ 0.0525 to 0.438 µM) | 0.25 µg/mL (≈ 0.438 µM) | 4 µg/mL (≈ 7 µM) | 2 µg/mL (≈ 3.5 µM) | 0.25 µg/mL (≈ 0.438 µM) | ≤ 0.03 µg/mL | ≤ 0.03 µg/mL | MIC (F. tularensis): 0.03 to 0.5 µg/mL (≈ 0.0525 to 0.876 µM); MIC [2]: 0.5 µg/mL; MIC50 (B. pseudomallei): 4 µg/mL (≈ 7 µM); MIC90 (B. pseudomallei): 8 µg/mL (≈ 14 µM); MIC (B. pseudomallei): 0.5 to 16 µg/mL (≈ 0.876 to 28 µM); MIC (P. aeruginosa 1705886): 2 µg/mL (≈ 3.5 µM); MIC50 (Y. pestis): 0.06 µg/mL (≈ 0.105 µM); MIC90 (Y. pestis): 0.12 µg/mL (≈ 0.21 µM); MIC (Y. pestis): 0.03 to 0.25 µg/mL (≈ 0.0525 to 0.438 µM); MIC (K. pneumoniae 1705949): 0.5 µg/mL (≈ 0.876 µM)
C[C@H](N)CCCc1cc(Cl)c(F)c(-c2cc3cn(-c4ccc([C@H](N)CCCCNC(=N)N)cc4)c(=O)nc3[nH]2)c1 [Compound 16] | 0.5 µg/mL (≈ 0.882 µM) | 0.125 µg/mL (≈ 0.22 µM) | 0.06 µg/mL (≈ 0.106 µM) | ≤ 0.03 µg/mL | 0.06 µg/mL (≈ 0.106 µM) | 0.03 to 0.12 µg/mL (≈ 0.0529 to 0.212 µM) | 0.25 µg/mL (≈ 0.441 µM) | 0.25 µg/mL (≈ 0.441 µM) | 0.125 µg/mL | 0.125 µg/mL (≈ 0.22 µM) | 2 µg/mL (≈ 3.53 µM) | ≤ 0.03 µg/mL | 0.06 µg/mL (≈ 0.106 µM) | 0.03 to 0.06 µg/mL (≈ 0.0529 to 0.106 µM) | 0.25 µg/mL (≈ 0.441 µM) | 8 µg/mL (≈ 14.1 µM) | 4 µg/mL (≈ 7.05 µM) | 0.25 µg/mL (≈ 0.441 µM) | ≤ 0.03 µg/mL | 0.12 µg/mL (≈ 0.212 µM) | MIC (F. tularensis): 0.03 to 1 µg/mL (≈ 0.0529 to 1.76 µM); MIC [2]: 2 µg/mL; MIC50 (B. pseudomallei): 4 µg/mL (≈ 7.05 µM); MIC90 (B. pseudomallei): 8 µg/mL (≈ 14.1 µM); MIC (B. pseudomallei): 2 to 16 µg/mL (≈ 3.53 to 28.2 µM); MIC (P. aeruginosa 1705886): 4 µg/mL (≈ 7.05 µM); MIC50 (Y. pestis): 0.12 µg/mL (≈ 0.212 µM); MIC90 (Y. pestis): 0.25 µg/mL (≈ 0.441 µM); MIC (Y. pestis): 0.03 to 0.5 µg/mL (≈ 0.0529 to 0.882 µM); MIC (K. pneumoniae 1705949): 2 µg/mL (≈ 3.53 µM)
C[C@H](NCCCNC(=N)N)c1ccc(-n2cc3cc(-c4cc(CCC5(CN)CC5)cc(Cl)c4F)[nH]c3nc2=O)cc1 [Compound 4] | 0.5 µg/mL (≈ 0.863 µM) | 0.25 µg/mL (≈ 0.432 µM) | 0.25 µg/mL (≈ 0.432 µM) | 0.5 µg/mL (≈ 0.863 µM) | 0.5 µg/mL (≈ 0.863 µM) | 0.06 to 4 µg/mL (≈ 0.104 to 6.91 µM) | 0.25 µg/mL (≈ 0.432 µM) | 0.25 µg/mL (≈ 0.432 µM) | 0.5 µg/mL | 0.125 µg/mL (≈ 0.216 µM) | 4 µg/mL (≈ 6.91 µM) | ≤ 0.03 µg/mL | 0.12 µg/mL (≈ 0.207 µM) | 0.03 to 0.5 µg/mL (≈ 0.0518 to 0.863 µM) | 0.5 µg/mL (≈ 0.863 µM) | 4 µg/mL (≈ 6.91 µM) | 4 µg/mL (≈ 6.91 µM) | 0.25 µg/mL (≈ 0.432 µM) | ≤ 0.03 µg/mL | ≤ 0.03 µg/mL | MIC (F. tularensis): 0.03 to 1 µg/mL (≈ 0.0518 to 1.73 µM); MIC [2]: 4 µg/mL; MIC50 (B. pseudomallei): 2 µg/mL (≈ 3.45 µM); MIC90 (B. pseudomallei): 4 µg/mL (≈ 6.91 µM); MIC (B. pseudomallei): 0.5 to 8 µg/mL (≈ 0.863 to 13.8 µM); MIC (P. aeruginosa 1705886): 2 µg/mL (≈ 3.45 µM); MIC50 (Y. pestis): 0.25 µg/mL (≈ 0.432 µM); MIC90 (Y. pestis): 0.25 µg/mL (≈ 0.432 µM); MIC (Y. pestis): 0.03 to 0.5 µg/mL (≈ 0.0518 to 0.863 µM); MIC (K. pneumoniae 1705949): 1 µg/mL (≈ 1.73 µM)
C[C@@H](N)CCCc1cc(Cl)c(F)c(-c2cc3cn(-c4ccc(CNCCCNC(=N)N)cc4)c(=O)nc3[nH]2)c1 [Compound 1] | 1 µg/mL (≈ 1.81 µM) | 0.25 µg/mL (≈ 0.452 µM) | 0.06 µg/mL (≈ 0.108 µM) | 0.12 µg/mL (≈ 0.217 µM) | 0.25 µg/mL (≈ 0.452 µM) | 0.03 to 0.25 µg/mL (≈ 0.0542 to 0.452 µM) | 0.5 µg/mL (≈ 0.904 µM) | 0.25 µg/mL (≈ 0.452 µM) | 0.125 µg/mL | 0.125 µg/mL (≈ 0.226 µM) | 4 µg/mL (≈ 7.23 µM) | ≤ 0.03 µg/mL | 0.06 µg/mL (≈ 0.108 µM) | 0.03 to 0.25 µg/mL (≈ 0.0542 to 0.452 µM) | 0.25 µg/mL (≈ 0.452 µM) | 8 µg/mL (≈ 14.5 µM) | 4 µg/mL (≈ 7.23 µM) | 0.125 µg/mL (≈ 0.226 µM) | ≤ 0.03 µg/mL | ≤ 0.03 µg/mL | MIC (F. tularensis): 0.03 to 0.5 µg/mL (≈ 0.0542 to 0.904 µM); MIC [2]: 4 µg/mL; MIC50 (B. pseudomallei): 4 µg/mL (≈ 7.23 µM); MIC90 (B. pseudomallei): 4 µg/mL (≈ 7.23 µM); MIC (B. pseudomallei): 0.5 to 16 µg/mL (≈ 0.904 to 28.9 µM); MIC (P. aeruginosa 1705886): 2 µg/mL (≈ 3.62 µM); MIC50 (Y. pestis): 0.12 µg/mL (≈ 0.217 µM); MIC90 (Y. pestis): 0.25 µg/mL (≈ 0.452 µM); MIC (Y. pestis): 0.03 to 0.5 µg/mL (≈ 0.0542 to 0.904 µM); MIC (K. pneumoniae 1705949): 2 µg/mL (≈ 3.62 µM)
